# Assay results as given in PubChem BioAssay (NCI).
#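 Cultured in 96-well plates, cells were exposed to test compound for 48 hours across five concentrations. GI50 is the concentration that inhibits growth by half. TGI: total growth inhibition.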
# Columns and labels:
# Assay in all cases: NCI tumour cell line growth inhibition, 48 h
# [1] = tested on: HCT-116 colon
# [2] = tested on: RPMI-8226 leukemia
# [3] = tested on: MCF7 breast
# [4] = tested on: SNB-19 CNS
# [5] = tested on: 786-0 renal
# [6] = tested on: MDA-MB-231 breast
# [7] = tested on: HCC-2998 colon
# [8] = tested on: SK-OV-3 ovarian
# [9] = tested on: HOP-92 NSCLC
# [10] = tested on: NCI-H522 lung
# [11] = tested on: MOLT-4 leukemia
# [12] = tested on: SNB-75 CNS
# [13] = tested on: COLO 205 colon
# [14] = tested on: OVCAR-5 ovarian
# [15] = tested on: SF-295 CNS
# [16] = tested on: BT-549 breast
# [17] = tested on: SK-MEL-5 melanoma
# [18] = tested on: UO-31 renal
# [19] = tested on: SF-268 CNS
# [20] = tested on: HS 578T breast
# [21] = tested on: HL-60(TB) leukemia
# [22] = tested on: SF-539 CNS
# [23] = tested on: T-47D breast
# [24] = tested on: NCI/ADR-RES ovarian
# [25] = tested on: SK-MEL-2 melanoma
# [26] = tested on: TK-10 renal
# [27] = tested on: IGROV1 ovarian
# [28] = tested on: U251 CNS
smiles,measurement,setting,value
N=C1S/C(=C/c2ccc(-c3ccc4c(c3)C(=O)NC4=O)o2)C(=O)N1c1ccc(Br)cc1,GI50,[1],3.65 µM
same,TGI,[1],> 100 µM
same,GI50,[2],4.2 µM
same,TGI,[2],> 100 µM
same,GI50,[3],3.68 µM
same,TGI,[3],> 100 µM
same,GI50,[4],> 100 µM
same,TGI,[4],> 100 µM
same,GI50,[5],3.45 µM
same,TGI,[5],> 100 µM
same,GI50,[6],4.21 µM
same,TGI,[6],> 100 µM
same,GI50,[7],> 100 µM
same,TGI,[7],> 100 µM
same,GI50,[8],6.19 µM
same,TGI,[8],> 100 µM
same,GI50,[9],1.81 µM
same,TGI,[9],8.56 µM
same,GI50,[10],3.63 µM
same,TGI,[10],> 100 µM
same,GI50,[11],> 100 µM
same,TGI,[11],> 100 µM
same,GI50,[12],2.17 µM
same,TGI,[12],6.76 µM
same,GI50,[13],> 100 µM
same,TGI,[13],> 100 µM
same,GI50,[14],> 100 µM
same,TGI,[14],> 100 µM
same,GI50,[15],2.96 µM
same,TGI,[15],8.95 µM
same,GI50,[16],4.31 µM
same,TGI,[16],56 µM
same,GI50,[17],3.48 µM
same,TGI,[17],> 100 µM
same,GI50,[18],> 100 µM
same,TGI,[18],> 100 µM
same,GI50,[19],6.3 µM
same,TGI,[19],> 100 µM
same,GI50,[20],7.5 µM
same,TGI,[20],> 100 µM
same,GI50,[21],> 100 µM
same,TGI,[21],> 100 µM
same,GI50,[22],> 100 µM
same,TGI,[22],> 100 µM
same,GI50,[23],2.92 µM
same,TGI,[23],> 100 µM
same,GI50,[24],> 100 µM
same,TGI,[24],> 100 µM
same,GI50,[25],11.7 µM
same,TGI,[25],41.8 µM
same,GI50,[26],3.32 µM
same,TGI,[26],> 100 µM
same,GI50,[27],15.9 µM
same,TGI,[27],> 100 µM
same,GI50,[28],2.91 µM
same,TGI,[28],8.23 µM
